From patent US20230416224A1, “PROCESSES FOR PREPARING ARIMOCLOMOL CITRATE AND INTERMEDIATES THEREOF” (ZEVRA DENMARK A/S, priority 2020, published 2023)

Columns and labels:
[1] = Particle size distribution of ORZY-05 by static automated imaging (Morphologi 4); format: physicochemical; conditions: ORZY-05 particles
Procedure: The materials and methods were essentially as in Example 7. In the present example, the cooling time of the cooling step of from 30° C. to 0° C. subsequent to addition of acetone was varied and its influence on the particle size of ORZY-05 was determined. The cooling time is a measure of how long it takes to reach 0° C. from 30° C. The particle size distribution (PSD) data shown in Table 3 were acquired using static automated imaging (Morphology 4).
Morphologi 4: The Particle size distribution of Arimoclomol citrate (ORZY-05) was also measured using a Malvern Morphologi 4 equipment.
Wet measurement was used for the needle shaped particles. […] Measurements were made using a thin path wet cell (75*75 mm). Samples were prepared by adding 20 mL of dispersant to 10 mg of API, followed by 30 s of stirring and 2 min of sonication in order to break the agglomerates. A microscope magnifier of X10 or X20 was used, and segmentation sharp edge and/or thresholding was used to improve the focus microscope focus.

[2] = Particle size distribution of ORZY-05 by Malvern Mastersizer 3000; format: physicochemical; conditions: ORZY-05 particles, Malvern Mastersizer 3000, volume distribution
Procedure: Further batches of ORZY-05 were prepared essentially as in Example 7 and the ORZY-05 particles were examined using Malvern Mastersizer 3000 as described in Example 11.
Malvern Mastersizer 3000: Particle size distribution of Arimoclomol citrate (ORZY-05) was determined by light scattering using a Malvern Mastersizer 3000 particle size analyzer (Malvern Instruments Ltd, Grovewood Road, Malvern, Worcestershire WR14 1XZ, United Kingdom) with a Hydro MV wet-dispersion unit attached. 2-Propanol with 1.8 g/L SPAN-85 additive was used as a dispersion medium (“dispersant”) and added to the dispersion unit. Prior to sample addition, the background counts of the system were determined by circulating the dispersant through the measurement cell under measurement conditions (2500 rpm stirrer speed). Samples for analysis were prepared by adding a suitable amount of Arimoclomol citrate to a 10 mL vial and pre-dispersing it with dispersant under light agitation for a few seconds. The pre-dispersed sample was then pipetted into the Hydro MV dispersion unit filled with dispersant to meet a laser obscuration range of 10-15%. A single-use PE pipette was used for this and representative sampling from the 10 mL vial was ensured by continuous agitation. […] Volume distributions were obtained and the D10, D50 and D90 were calculated from these distributions and reported. For each sample, a single sample preparation was analyzed using red light measurement only. Upon measurement completion, the sample cell was emptied and cleaned.

| SMILES | Number CE Diameter D10 [1] [μm] | Number CE Diameter D50 [1] [μm] | Number CE Diameter D90 [1] [μm] | Number CE Diameter Mean [1] [μm] | Number Length D10 [1] [μm] | Number Length D50 [1] [μm] | Number Length D90 [1] [μm] | Volume CE Diameter D10 [1] [μm] | Volume CE Diameter D50 [1] [μm] | Volume CE Diameter D90 [1] [μm] | Volume CE diameter D[3,2] [1] [μm] | Volume CE diameter D[4,3] [1] [μm] | D10 [2] [μm] | D50 [2] [μm] | D90 [2] [μm] |
| --- | --- | --- | --- | --- | --- | --- | --- | --- | --- | --- | --- | --- | --- | --- | --- |
| O=C(O)CC(O)(CC(=O)O)C(=O)O.[O-][n+]1cccc(/C(Cl)=N/OC[C@H](O)CN2CCCCC2)c1 [17-003, arimoclomol citrate] | 1.00 | 2.00 | 5.80 | 2.90 | 1.40 | 3.20 | 10.50 | 4.60 | 11.10 | 26.70 | 8.80 | 13.70 |  |  |  |
| O=C(O)CC(O)(CC(=O)O)C(=O)O.[O-][n+]1cccc(/C(Cl)=N/OC[C@H](O)CN2CCCCC2)c1 [compound 2002, arimoclomol citrate] |  |  |  |  |  |  |  |  |  |  |  |  | 4.33 | 12.5 | 37.9 |
| O=C(O)CC(O)(CC(=O)O)C(=O)O.[O-][n+]1cccc(/C(Cl)=N/OC[C@H](O)CN2CCCCC2)c1 [17-004, arimoclomol citrate] | 0.80 | 2.00 | 23.50 | 6.70 | 1.50 | 4.00 | 40.70 | 24.60 | 38.90 | 52.20 | 34.20 | 38.80 |  |  |  |
| O=C(O)CC(O)(CC(=O)O)C(=O)O.[O-][n+]1cccc(/C(Cl)=N/OC[C@H](O)CN2CCCCC2)c1 [17-002, arimoclomol citrate] | 0.70 | 2.20 | 7.40 | 3.40 | 1.10 | 3.20 | 13.90 | 6.20 | 14.00 | 35.00 | 11.40 | 17.10 |  |  |  |
| O=C(O)CC(O)(CC(=O)O)C(=O)O.[O-][n+]1cccc(/C(Cl)=N/OC[C@H](O)CN2CCCCC2)c1 [18-001, arimoclomol citrate] | 0.80 | 2.50 | 10.70 | 4.60 | 1.80 | 4.10 | 16.80 | 11.20 | 26.40 | 37.60 | 19.50 | 25.40 |  |  |  |
| O=C(O)CC(O)(CC(=O)O)C(=O)O.[O-][n+]1cccc(/C(Cl)=N/OC[C@H](O)CN2CCCCC2)c1 [compound 1002, arimoclomol citrate] | 2.45 | 5.61 | 15.01 | 7.71 | 3.46 | 7.37 | 22.17 | 12.39 | 32.12 | 73.60 | 24.24 | 39.38 | 14.00 | 53.00 | 118.00 |
| O=C(O)CC(O)(CC(=O)O)C(=O)O.[O-][n+]1cccc(/C(Cl)=N/OC[C@H](O)CN2CCCCC2)c1 [18-002, arimoclomol citrate] | 0.90 | 2.20 | 10.10 | 4.20 | 1.50 | 3.60 | 16.60 | 10.90 | 22.70 | 36.00 | 17.90 | 23.30 |  |  |  |
| O=C(O)CC(O)(CC(=O)O)C(=O)O.[O-][n+]1cccc(/C(Cl)=N/OC[C@H](O)CN2CCCCC2)c1 [17-001, arimoclomol citrate] | 0.60 | 1.60 | 9.40 | 3.70 | 1.70 | 4.70 | 22.00 | 9.40 | 24.70 | 44.40 | 17.70 | 25.70 |  |  |  |
| O=C(O)CC(O)(CC(=O)O)C(=O)O.[O-][n+]1cccc(/C(Cl)=N/OC[C@H](O)CN2CCCCC2)c1 [18-003, arimoclomol citrate] | 4.40 | 21.80 | 38.20 | 22.10 | 8.00 | 29.90 | 56.10 | 24.00 | 37.60 | 58.30 | 35.40 | 41.10 |  |  |  |
| O=C(O)CC(O)(CC(=O)O)C(=O)O.[O-][n+]1cccc(/C(Cl)=N/OC[C@H](O)CN2CCCCC2)c1 [compound 2006, arimoclomol citrate] |  |  |  |  |  |  |  |  |  |  |  |  | 11.6 | 35.6 | 77.7 |
| O=C(O)CC(O)(CC(=O)O)C(=O)O.[O-][n+]1cccc(/C(Cl)=N/OC[C@H](O)CN2CCCCC2)c1 [compound 2001, arimoclomol citrate] |  |  |  |  |  |  |  |  |  |  |  |  | 17.2 | 47.2 | 112 |
| O=C(O)CC(O)(CC(=O)O)C(=O)O.[O-][n+]1cccc(/C(Cl)=N/OC[C@H](O)CN2CCCCC2)c1 [compound 1003, arimoclomol citrate] | 0.89 | 3.34 | 14.14 | 5.79 | 4.20 | 9.50 | 25.49 | 10.66 | 20.58 | 34.54 | 17.52 | 22.10 | 6.00 | 17.00 | 47.00 |
| O=C(O)CC(O)(CC(=O)O)C(=O)O.[O-][n+]1cccc(/C(Cl)=N/OC[C@H](O)CN2CCCCC2)c1 [compound 2004, arimoclomol citrate] |  |  |  |  |  |  |  |  |  |  |  |  | 10.2 | 34.8 | 87 |
| O=C(O)CC(O)(CC(=O)O)C(=O)O.[O-][n+]1cccc(/C(Cl)=N/OC[C@H](O)CN2CCCCC2)c1 [18-004, arimoclomol citrate] | 3.70 | 12.00 | 29.20 | 14.90 | 5.30 | 15.40 | 40.00 | 19.40 | 39.80 | 81.20 | 33.90 | 45.90 |  |  |  |
| O=C(O)CC(O)(CC(=O)O)C(=O)O.[O-][n+]1cccc(/C(Cl)=N/OC[C@H](O)CN2CCCCC2)c1 [compound 1004, arimoclomol citrate] | 1.05 | 2.86 | 13.33 | 5.31 | 2.82 | 6.18 | 24.80 | 12.62 | 25.00 | 43.46 | 20.53 | 27.06 | 8.00 | 22.00 | 68.00 |
| O=C(O)CC(O)(CC(=O)O)C(=O)O.[O-][n+]1cccc(/C(Cl)=N/OC[C@H](O)CN2CCCCC2)c1 [compound 2005, arimoclomol citrate] |  |  |  |  |  |  |  |  |  |  |  |  | 11.2 | 35.6 | 82.6 |
| O=C(O)CC(O)(CC(=O)O)C(=O)O.[O-][n+]1cccc(/C(Cl)=N/OC[C@H](O)CN2CCCCC2)c1 [compound 2003, arimoclomol citrate] |  |  |  |  |  |  |  |  |  |  |  |  | 4.65 | 13.5 | 40.7 |
